Results as given in patent US20240158348A1, “HERBICIDAL CYCLIC AMIDES N-SUBSTITUTED WITH A HALOALKYLSULFONYLANILIDE GROUP” (FMC Corporation, priority 2021, published 2024).

Experiments:
Assay type in all cases: in vivo
corn (Zea mays) [1] = test: Test C preemergence, corn; settings: 0 is no effect, 100 is complete control
Source text: (§1) Seeds of plant species selected from blackgrass (Alopecurus myosuroides), corn (Zea mays), foxtail, giant (giant foxtail, Setaria faberi), goosegrass (Eleusine indica), kochia (Bassia scoparia), oat, wild (wild oat, Avena fatua), pigweed, palmer (palmer amaranth, Amaranthus palmeri), ragweed (common ragweed, Ambrosia artemisiifolia), ryegrass, Italian (Italian ryegrass, Lolium multiflorum), soybean (Glycine max) and wheat (Triticum aestivum) were planted into a blend of loam soil and sand and treated preemergence with a directed soil spray using test chemicals formulated in a non-phytotoxic solvent mixture which included a surfactant.
(§2) At the same time, plants selected from these crop and weed species and also galium (catchweed bedstraw, Galium aparine) and horseweed (Erigeron canadensis) were planted in pots containing the same blend of loam soil and sand and treated with postemergence applications of test chemicals formulated in the same manner. Plants ranged in height from 2 to 10 cm and were in the one- to two-leaf stage for the postemergence treatment. Treated plants and untreated controls were maintained in a greenhouse for 10 or 12 days, after which time all treated plants were compared to untreated controls and visually evaluated for injury. Plant response ratings, summarized in Table A, are based on a 0 to 100 scale where 0 is no effect and 100 is complete control. A dash (-) response means no test result.

[2] = tested on: foxtail, giant (giant foxtail, Setaria faberi); test: Test C preemergence, giant foxtail; settings: 0 is no effect, 100 is complete control
Source text: as §1, §2

[3] = tested on: goosegrass (Eleusine indica); test: Test C preemergence, goosegrass; settings: 0 is no effect, 100 is complete control
Source text: as §1, §2

kochia (Bassia scoparia) [4] = test: Test C preemergence, kochia; settings: 0 is no effect, 100 is complete control
Source text: as §1, §2

[5] = tested on: oat, wild (wild oat, Avena fatua); test: Test C preemergence, wild oat; settings: 0 is no effect, 100 is complete control
Source text: as §1, §2

[6] = tested on: pigweed, palmer (palmer amaranth, Amaranthus palmeri); test: Test C preemergence, palmer amaranth; settings: 0 is no effect, 100 is complete control
Source text: as §1, §2

[7] = tested on: ragweed (common ragweed, Ambrosia artemisiifolia); test: Test C preemergence, ragweed; settings: 0 is no effect, 100 is complete control
Source text: as §1, §2

[8] = tested on: ryegrass, Italian (Italian ryegrass, Lolium multiflorum); test: Test C preemergence, Italian ryegrass; settings: 0 is no effect, 100 is complete control
Source text: as §1, §2

soybean (Glycine max) [9] = test: Test C preemergence, soybean; settings: 0 is no effect, 100 is complete control
Source text: as §1, §2

[10] = tested on: wheat (Triticum aestivum); test: Test C preemergence, wheat; settings: 0 is no effect, 100 is complete control
Source text: as §1, §2

[11] = tested on: blackgrass (Alopecurus myosuroides); test: Test C postemergence, blackgrass; settings: visual injury, 0 to 100 scale (0 no effect, 100 complete control)
Source text: as §1, §2

corn (Zea mays) [12] = test: Test C postemergence, corn; settings: visual injury, 0 to 100 scale (0 no effect, 100 complete control)
Source text: as §1, §2

[13] = tested on: foxtail, giant (giant foxtail, Setaria faberi); test: Test C postemergence, giant foxtail; settings: visual injury, 0 to 100 scale (0 no effect, 100 complete control)
Source text: as §1, §2

[14] = tested on: goosegrass (Eleusine indica); test: Test C postemergence, goosegrass; settings: visual injury, 0 to 100 scale (0 no effect, 100 complete control)
Source text: as §1, §2

kochia (Bassia scoparia) [15] = test: Test C postemergence, kochia; settings: visual injury, 0 to 100 scale (0 no effect, 100 complete control)
Source text: as §1, §2

[16] = tested on: oat, wild (wild oat, Avena fatua); test: Test C postemergence, wild oat; settings: visual injury, 0 to 100 scale (0 no effect, 100 complete control)
Source text: as §1, §2

[17] = tested on: pigweed, palmer (palmer amaranth, Amaranthus palmeri); test: Test C postemergence, palmer amaranth; settings: visual injury, 0 to 100 scale (0 no effect, 100 complete control)
Source text: as §1, §2

[18] = tested on: ragweed (common ragweed, Ambrosia artemisiifolia); test: Test C postemergence, ragweed; settings: visual injury, 0 to 100 scale (0 no effect, 100 complete control)
Source text: as §1, §2

[19] = tested on: ryegrass, Italian (Italian ryegrass, Lolium multiflorum); test: Test C postemergence, Italian ryegrass; settings: visual injury, 0 to 100 scale (0 no effect, 100 complete control)
Source text: as §1, §2

soybean (Glycine max) [20] = test: Test C postemergence, soybean; settings: visual injury, 0 to 100 scale (0 no effect, 100 complete control)
Source text: as §1, §2

[21] = tested on: wheat (Triticum aestivum); test: Test C postemergence, wheat; settings: visual injury, 0 to 100 scale (0 no effect, 100 complete control)
Source text: as §1, §2

[22] = tested on: galium (catchweed bedstraw, Galium aparine); test: Test C postemergence, galium; settings: visual injury, 0 to 100 scale (0 no effect, 100 complete control)
Source text: as §1, §2

[23] = tested on: barnyardgrass (Echinochloa crusgalli); test: Test D flooded paddy test, barnyardgrass; design: key: 0 = no effect, 100 = complete control; settings: 250 g ai/ha, Flood; applied to paddy water at 2-leaf stage; visual rating after 13 days; scale 0 (no effect) to 100 (complete control)
Method: (§3) Plant species in the flooded paddy test selected from barnyardgrass (Echinochloa crusgalli), ducksalad (Heteranthera limosa), rice (Oryza sativa), and sedge, umbrella (small-flower umbrella sedge, Cyperus difformis) were grown to the 2-leaf stage for testing. At time of treatment, test pots were flooded to 3 cm above the soil surface, treated by application of test compounds directly to the paddy water, and then maintained at that water depth for the duration of the test. Treated plants and controls were maintained in a greenhouse for 13 days, after which time all species were compared to controls and visually evaluated. Plant response ratings, summarized in Table B, are based on a scale of 0 to 100 where 0 is no effect and 100 is complete control. A dash (-) response means no test result.

[24] = tested on: ducksalad (Heteranthera limosa); test: Test D flooded paddy test, ducksalad; design: key: 0 = no effect, 100 = complete control; settings: 250 g ai/ha, Flood; applied to paddy water at 2-leaf stage; visual rating after 13 days; scale 0 (no effect) to 100 (complete control)
Method: as §3

rice (Oryza sativa) = test: Test D flooded paddy test, rice; design: key: 0 = no effect, 100 = complete control; settings: 250 g ai/ha, Flood; applied to paddy water at 2-leaf stage; visual rating after 13 days; scale 0 (no effect) to 100 (complete control)
Method: as §3

[25] = tested on: sedge, umbrella (small-flower umbrella sedge, Cyperus difformis); test: Test D flooded paddy test, umbrella sedge; design: key: 0 = no effect, 100 = complete control; settings: 250 g ai/ha, Flood; applied to paddy water at 2-leaf stage; visual rating after 13 days; scale 0 (no effect) to 100 (complete control)
Method: as §3

Compound: Cc1c(N2CCC(OC3CC3)C2=O)cc(N(C(=O)OCC(C)C)S(=O)(=O)C(F)(F)F)c(C)c1C (stereo not drawn) [Compound 50]
- Plant response rating (0 to 100 scale), Corn (corn (Zea mays) [1]; 31 g ai/ha Preemergence): 10
- Plant response rating (0 to 100 scale), Corn (corn (Zea mays) [1]; 125 g ai/ha Preemergence): 90
- Plant response rating (0 to 100 scale), Foxtail, Giant ([2]; 31 g ai/ha Preemergence): 50
- Plant response rating (0 to 100 scale), Foxtail, Giant ([2]; 125 g ai/ha Preemergence): 100
- Plant response rating (0 to 100 scale), Goosegrass ([3]; 31 g ai/ha Preemergence): 90
- Plant response rating (0 to 100 scale), Goosegrass ([3]; 125 g ai/ha Preemergence): 100
- Plant response rating (0 to 100 scale), Kochia (kochia (Bassia scoparia) [4]; 31 g ai/ha Preemergence): 20
- Plant response rating (0 to 100 scale), Kochia (kochia (Bassia scoparia) [4]; 125 g ai/ha Preemergence): 100
- Plant response rating (0 to 100 scale), Oat, Wild ([5]; 31 g ai/ha Preemergence): 70
- Plant response rating (0 to 100 scale), Oat, Wild ([5]; 125 g ai/ha Preemergence): 80
- Plant response rating (0 to 100 scale), Pigweed, Palmer ([6]; 31 g ai/ha Preemergence): 90
- Plant response rating (0 to 100 scale), Pigweed, Palmer ([6]; 125 g ai/ha Preemergence): 100
- Plant response rating (0 to 100 scale), Ragweed ([7]; 31 g ai/ha Preemergence): 30
- Plant response rating (0 to 100 scale), Ragweed ([7]; 125 g ai/ha Preemergence): 90
- Plant response rating (0 to 100 scale), Ryegrass, Italian ([8]; 31 g ai/ha Preemergence): 50
- Plant response rating (0 to 100 scale), Ryegrass, Italian ([8]; 125 g ai/ha Preemergence): 100
- Plant response rating (0 to 100 scale), Soybean (soybean (Glycine max) [9]; 31 g ai/ha Preemergence): 30
- Plant response rating (0 to 100 scale), Soybean (soybean (Glycine max) [9]; 125 g ai/ha Preemergence): 60
- Plant response rating (0 to 100 scale), Wheat ([10]; 31 g ai/ha Preemergence): 30
- Plant response rating (0 to 100 scale), Wheat ([10]; 125 g ai/ha Preemergence): 100
- Blackgrass plant response rating ([11]; 31 g ai/ha Postemergence): 10
- Blackgrass plant response rating ([11]; 125 g ai/ha Postemergence): 40
- Corn plant response rating (corn (Zea mays) [12]; 31 g ai/ha Postemergence): 30
- Corn plant response rating (corn (Zea mays) [12]; 125 g ai/ha Postemergence): 90
- Foxtail, Giant plant response rating ([13]; 31 g ai/ha Postemergence): 50
- Foxtail, Giant plant response rating ([13]; 125 g ai/ha Postemergence): 80
- Goosegrass plant response rating ([14]; 31 g ai/ha Postemergence): 20
- Goosegrass plant response rating ([14]; 125 g ai/ha Postemergence): 80
- Kochia plant response rating (kochia (Bassia scoparia) [15]; 31 g ai/ha Postemergence): 20
- Kochia plant response rating (kochia (Bassia scoparia) [15]; 125 g ai/ha Postemergence): 70
- Oat, Wild plant response rating ([16]; 31 g ai/ha Postemergence): 20
- Oat, Wild plant response rating ([16]; 125 g ai/ha Postemergence): 50
- Pigweed, Palmer plant response rating ([17]; 31 g ai/ha Postemergence): 20
- Pigweed, Palmer plant response rating ([17]; 125 g ai/ha Postemergence): 60
- Ragweed plant response rating ([18]; 31 g ai/ha Postemergence): 70
- Ragweed plant response rating ([18]; 125 g ai/ha Postemergence): 80
- Ryegrass, Italian plant response rating ([19]; 31 g ai/ha Postemergence): 50
- Ryegrass, Italian plant response rating ([19]; 125 g ai/ha Postemergence): 90
- Soybean plant response rating (soybean (Glycine max) [20]; 31 g ai/ha Postemergence): 60
- Soybean plant response rating (soybean (Glycine max) [20]; 125 g ai/ha Postemergence): 80
- Wheat plant response rating ([21]; 31 g ai/ha Postemergence): 60
- Wheat plant response rating ([21]; 125 g ai/ha Postemergence): 80
- Galium plant response rating ([22]; 31 g ai/ha Postemergence): 60
- Galium plant response rating ([22]; 125 g ai/ha Postemergence): 100
- Plant response rating, Barnyardgrass [23]: 90
- Plant response rating, Ducksalad [24]: 90
- Plant response rating, Rice (rice (Oryza sativa)): 20
- Plant response rating, Sedge, Umbrella [25]: 95
